# Data published in patent publication US7407940B2, “Antimicrobial hexapeptides” (Helix BioMedix Inc., priority 2005, dated 2008).
# Where no end group is shown, it is not given here. [ ]: non-standard residue; d: D form. The star is where a group is joined. Oleoyl = CCCCCCCC/C=C\CCCCCCCC(=O)*; Stearoyl = CCCCCCCCCCCCCCCCCC(=O)*; Palmitoyl = CCCCCCCCCCCCCCCC(=O)*; Myristoyl = CCCCCCCCCCCCCC(=O)*; Nonanoyl = CCCCCCCCC(=O)*; Octanoyl = CCCCCCCC(=O)*
# Key:
# Escherichia coli UB1005 = test: MIC, broth microdilution, E. coli; type: cell-based; set-up: unit not given here
# Protocol: (§1) MICs (minimal inhibitory concentrations) were determined for the hexapeptides of interest using a slightly modified version of the NCCLS (National Committee for Clinical Laboratory Standards) broth microdilution method as described previously (Steinberg et al., AAC 41: 1738, 1997). Briefly, antimicrobial agents were prepared as 10× concentrates in the most appropriate solvent. For the hexapeptide, 0.01% acetic acid containing 0.2% bovine serum albumin as a carrier protein was used. Inocula were prepared by resuspending colonies from a BAP (please spell out this term) in medium and adjusting the suspension to match that of a 0.5 McFarland standard. The suspension was diluted into fresh medium (as recommended by NCCLS for the organism) to give 2×10^5 to 7×10^5 CFU/ml for bacteria or 2×10^3 to 7×10^3 CFU/ml for Candida. After dispensing 100 μl aliquots of the microbial suspension into each well of a 96-well polypropylene microtiter plate, 11 μl of test compound was added. The MIC was defined as the lowest concentration of drug which prevented visible turbidity after 16 to 20 hours (bacteria) or 46 to 50 hours (Candida) at 35° C.
# [1] = tested on: Salmonella typhimurium 14028S; test: MIC, broth microdilution, S. typhimurium; type: cell-based; set-up: unit not given here; settings: for Anti-microbial activity (MIC): S. typhimurium 14028S; for MIC, lipid length SAR: S.typhimurium
# Protocol: as §1
# Pseudomonas aeruginosa = type: cell-based; set-up: MIC, lipid length SAR: unit not given here; settings: P.aeruginosa
# Protocol: as §1
# P. acnes = test: Activity against extended panel of P. acnes; type: cell-based; set-up: unit not given here
# Source text: A very promising application for short bioactive peptides is for dermatological indications such as acne.
# MRSA = test: Kill curve in 10% sheep serum-phosphate buffer against MRSA; type: cell-based, S. aureus; settings: 10% serum / biological environments
Substance,Anti-microbial activity (MIC) (Escherichia coli UB1005),Anti-microbial activity (MIC) [1],also measured
KPVWPW-NH2 [SEQ ID NO: 30],>128,>128,
KPWKFK-NH2 [SEQ ID NO: 29],>128,>128,
KWKFKF-NH2 [SEQ ID NO: 23],>128,>128,
KWKKLA-NH2 [SEQ ID NO: 22],>128,>128,
KWKKPV-NH2 [SEQ ID NO: 17],>128,>128,
KWKVFK-NH2 [SEQ ID NO: 24],>128,>128,
LAKLAK-NH2 [SEQ ID NO: 28],>128,>128,
LLKWPW-NH2 [SEQ ID NO: 33],>128,>128,
Myr-KFKWPW-NH2 (Myristoyl-KFKWPW-NH2; SMILES CCCCCCCCCCCCCC(=O)N[C@@H](CCCCN)C(=O)N[C@@H](Cc1ccccc1)C(=O)N[C@@H](CCCCN)C(=O)N[C@@H](Cc1c[nH]c2ccccc12)C(=O)N1CCC[C@H]1C(=O)N[C@@H](Cc1c[nH]c2ccccc12)C(N)=O) [SEQ ID NO: 77],,,"MIC, lipid length SAR (Pseudomonas aeruginosa): 64-128; MIC, lipid length SAR [1]: >128"
Non-KFKWPW-NH2 (Nonanoyl-KFKWPW-NH2; SMILES CCCCCCCCC(=O)N[C@@H](CCCCN)C(=O)N[C@@H](Cc1ccccc1)C(=O)N[C@@H](CCCCN)C(=O)N[C@@H](Cc1c[nH]c2ccccc12)C(=O)N1CCC[C@H]1C(=O)N[C@@H](Cc1c[nH]c2ccccc12)C(N)=O) [SEQ ID NO: 70],,,"MIC, lipid length SAR (Pseudomonas aeruginosa): 32-64; MIC, lipid length SAR [1]: 16"
OIe-KFKWPW-NH2 (Oleoyl-KFKWPW-NH2; SMILES CCCCCCCC/C=C\CCCCCCCC(=O)N[C@@H](CCCCN)C(=O)N[C@@H](Cc1ccccc1)C(=O)N[C@@H](CCCCN)C(=O)N[C@@H](Cc1c[nH]c2ccccc12)C(=O)N1CCC[C@H]1C(=O)N[C@@H](Cc1c[nH]c2ccccc12)C(N)=O) [SEQ ID NO: 75],,,"MIC, lipid length SAR (Pseudomonas aeruginosa): >128; MIC, lipid length SAR [1]: >128"
Oct-kfkwpw-HN2 (Octanoyl-[dK][dF][dK][dW][dP][dW]-NH2; SMILES CCCCCCCC(=O)N[C@H](CCCCN)C(=O)N[C@H](Cc1ccccc1)C(=O)N[C@H](CCCCN)C(=O)N[C@H](Cc1c[nH]c2ccccc12)C(=O)N1CCC[C@@H]1C(=O)N[C@H](Cc1c[nH]c2ccccc12)C(N)=O) [SEQ ID NO: 81],,,Activity (MIC) against P. acnes (P. acnes; ATCC 6921): 4; Activity (MIC) against P. acnes (P. acnes; ATCC 6922): 8; Activity (MIC) against P. acnes (P. acnes; ATCC 6923): 8; Activity (MIC) against P. acnes (P. acnes; ATCC 11828): 8; Activity (MIC) against P. acnes (P. acnes; ATCC 12930): 2; Activity (MIC) against P. acnes (P. acnes; ATCC 25746): 0.25; Activity (MIC) against P. acnes (P. acnes; ATCC 29399): 8; Activity (MIC) against P. acnes (P. acnes; ATCC 33179): 16; Activity (MIC) against P. acnes (P. acnes; ATCC 49929): 0.125; Activity (MIC) against P. acnes (P. acnes; ATCC 51277): 8
Pal-KFKWPW-NH2 (Palmitoyl-KFKWPW-NH2; SMILES CCCCCCCCCCCCCCCC(=O)N[C@@H](CCCCN)C(=O)N[C@@H](Cc1ccccc1)C(=O)N[C@@H](CCCCN)C(=O)N[C@@H](Cc1c[nH]c2ccccc12)C(=O)N1CCC[C@H]1C(=O)N[C@@H](Cc1c[nH]c2ccccc12)C(N)=O) [SEQ ID NO: 73],,,"MIC, lipid length SAR (Pseudomonas aeruginosa): >128; MIC, lipid length SAR [1]: >128"
RKTWPW-NH2 [SEQ ID NO: 15],>128,>128,
SEQ ID NO:56 (Octanoyl-KWKWFW-NH2; SMILES CCCCCCCC(=O)N[C@@H](CCCCN)C(=O)N[C@@H](Cc1c[nH]c2ccccc12)C(=O)N[C@@H](CCCCN)C(=O)N[C@@H](Cc1c[nH]c2ccccc12)C(=O)N[C@@H](Cc1ccccc1)C(=O)N[C@@H](Cc1c[nH]c2ccccc12)C(N)=O),,,ability to kill S. aureus in serum (in words) (MRSA): does not perform well in biological environments
Ste-KFKWPW-NH2 (Stearoyl-KFKWPW-NH2; SMILES CCCCCCCCCCCCCCCCCC(=O)N[C@@H](CCCCN)C(=O)N[C@@H](Cc1ccccc1)C(=O)N[C@@H](CCCCN)C(=O)N[C@@H](Cc1c[nH]c2ccccc12)C(=O)N1CCC[C@H]1C(=O)N[C@@H](Cc1c[nH]c2ccccc12)C(N)=O) [SEQ ID NO: 74],,,"MIC, lipid length SAR (Pseudomonas aeruginosa): >128; MIC, lipid length SAR [1]: >128"
VAKKWK-NH2 [SEQ ID NO: 25],>128,>128,
VAKLAK-NH2 [SEQ ID NO: 19],>128,>128,
VKVKPV-NH2 [SEQ ID NO: 13],>128,>128,
